Columns and labels:
[1] = tested on: patients with mild-to-moderate calcific aortic valve stenosis; assay: Phase I clinical trial, 14 days, blood pressure and orthostatic tolerance; format: in vivo, human
Source text: Phase I clinical trial design: Patients with mild-to-moderate calcific aortic valve stenosis (valve area between 1.0 cm^2 and 2.0 cm^2) with well-preserved left ventricular function (ejection fraction>50%) were recruited for participation in a randomized, double-blind, placebo-controlled trial. After screening, patients were randomized into two groups: • (1) placebo treatment for 14 days, or • (2) ataciguat treatment for 14 days. Patients underwent a series of tests to assess baseline blood pressure (seated and supine body positions), orthostatic tolerance (transition to standing, tilt table testing), and blood tests to assess liver enzyme function.
Combining ataciguat's role as an activator of heme-free sGC with reports of increased systemic oxidative stress in patients with FCAVS (Mourino-Alvarez et al., Int. J Cardiol., 225:99-106 (2016)), it was conceivable that administration of ataciguat could elicit acute hypotension or increase propensity to experience orthostatic hypotension. To investigate this possibility, a randomized, double-blind, placebo-controlled, dose-escalation study was conducted to assess the effects of ataciguat on orthostatic tolerance using both a standing test (highly functional) and a tilt table test (highly sensitive).

[2] = tested on: LPA-induced BMP signaling; assay: LPA-induced BMP signaling (Osterix mRNA) in aortic valve interstitial cells; format: cell-based; conditions: 18:0 lyso-PA with ataciguat
Protocol: In vitro cell culture studies: Aortic valve interstitial cells were isolated using an outgrowth method, and were expanded in DMEM/F-10 medium with 10% FBS and studied in passages 2-10. Cells were treated for 24 hours under each experimental condition, at which point mRNA was harvested using lysis buffer. After mRNA isolation and reverse transcription, gene expression was measured using quantitative real-time RT-PCR and Taqman primers. Changes in gene expression were assessed by the ddCt method and expressed as fold-change normalized to control conditions.
Additional studies were conducted in aortic valve interstitial cells to examine the effects of ataciguat on LPA-induced BMP signaling and BMP target gene expression. Cells were treated with 18:0 lyso-PA, with or without ataciguat, and Osterix mRNA levels were determined.

canonical BMP signaling = assay: BMP2-induced signaling in aortic valve interstitial cells; format: cell-based, mouse; conditions: cells treated with BMP2 with or without ataciguat
Protocol: (§1) To confirm that ataciguat effectively activated sGC in cells, mouse aortic valve interstitial cells (mVICs) were isolated from C57BL6/J mice treated with ataciguat or other sGC agonists as internal controls. […] To determine whether ataciguat could attenuate signaling cascades central to the initiation and progression of valve calcification in vitro, cells were treated with BMP2 with or without ataciguat. In these studies, ataciguat reduced phospho-SMAD1/5/8 signaling (e.g., canonical BMP signaling) as well as expression of osteogenic genes induced by BMP2 (e.g., osterix).

sGC = molecular target: T1, sGC (Mus musculus, UniProt O54865); assay: sGC signaling (phospho-VASP239) in mouse aortic valve interstitial cells; format: cell-based; conditions: otherwise naïve mVICs, vs vehicle-treated cells
T1 construct: endogenous in cells; host or cells: primary mouse aortic valve interstitial cells (mVICs) from C57BL6/J mice
T1 sequence (O54865 1-620): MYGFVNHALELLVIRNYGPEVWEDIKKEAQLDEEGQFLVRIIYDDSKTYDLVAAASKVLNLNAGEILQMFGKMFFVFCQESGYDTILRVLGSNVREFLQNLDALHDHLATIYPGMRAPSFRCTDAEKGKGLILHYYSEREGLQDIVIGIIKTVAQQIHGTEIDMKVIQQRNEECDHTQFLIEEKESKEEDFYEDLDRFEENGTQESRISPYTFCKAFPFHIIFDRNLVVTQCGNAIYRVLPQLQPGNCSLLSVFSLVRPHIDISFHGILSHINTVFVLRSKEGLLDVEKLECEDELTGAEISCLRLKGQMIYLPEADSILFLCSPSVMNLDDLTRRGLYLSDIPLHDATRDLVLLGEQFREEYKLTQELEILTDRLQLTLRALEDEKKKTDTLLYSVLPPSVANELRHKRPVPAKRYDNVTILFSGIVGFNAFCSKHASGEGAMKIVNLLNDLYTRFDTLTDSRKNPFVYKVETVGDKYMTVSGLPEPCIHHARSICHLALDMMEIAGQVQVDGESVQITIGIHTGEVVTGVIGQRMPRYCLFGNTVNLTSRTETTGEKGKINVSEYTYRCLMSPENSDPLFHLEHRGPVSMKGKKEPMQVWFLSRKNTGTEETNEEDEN
T1 sequence (Q9ERL9 1-691 partner): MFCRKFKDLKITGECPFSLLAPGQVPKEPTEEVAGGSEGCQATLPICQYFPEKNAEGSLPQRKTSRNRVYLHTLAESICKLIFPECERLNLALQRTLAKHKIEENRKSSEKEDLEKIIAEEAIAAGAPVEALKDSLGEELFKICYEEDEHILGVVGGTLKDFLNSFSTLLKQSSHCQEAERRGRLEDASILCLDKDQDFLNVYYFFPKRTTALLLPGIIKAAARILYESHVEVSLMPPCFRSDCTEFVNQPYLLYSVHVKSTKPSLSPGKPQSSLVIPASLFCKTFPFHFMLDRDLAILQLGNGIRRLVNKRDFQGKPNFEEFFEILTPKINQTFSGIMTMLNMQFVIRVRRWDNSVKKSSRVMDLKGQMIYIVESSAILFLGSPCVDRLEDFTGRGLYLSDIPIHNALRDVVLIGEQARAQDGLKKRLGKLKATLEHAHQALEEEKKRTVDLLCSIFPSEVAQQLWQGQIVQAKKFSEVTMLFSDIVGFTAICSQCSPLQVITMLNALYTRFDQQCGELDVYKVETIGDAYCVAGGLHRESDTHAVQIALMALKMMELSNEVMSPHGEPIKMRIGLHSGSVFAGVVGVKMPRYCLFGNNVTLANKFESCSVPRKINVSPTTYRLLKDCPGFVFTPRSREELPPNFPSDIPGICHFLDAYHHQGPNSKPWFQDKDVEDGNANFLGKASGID
Protocol: as §1

[3] = 14 days, vs pre-treatment or placebo

O=C(Nc1ccc(S(=O)(=O)N2CCOCC2)cc1)c1cc(Cl)ccc1NS(=O)(=O)c1ccc(Cl)s1 [ataciguat, 5-chloro-2-[[(5-chloro-2-thienyl)sulfonyl]amino]-N-[4-(4-morpholinylsulfonyl)phenyl]-benzamide]
seated systolic and diastolic blood pressure ([1]; 100 mg/day, 14 days): significantly reduced
seated systolic and diastolic blood pressure ([1]; 200 mg/day, 14 days): did not have a significant effect
supine systolic and diastolic blood pressure ([1]; 14 days): significantly reduced
changes in heart rate upon standing ([1]; 14 days, seated to standing): did not significantly or consistently alter
changes in systolic and diastolic blood pressure upon standing ([1]; 14 days, seated to standing): did not significantly or consistently alter
blood pressure responses to head-up tilt [1, 3]: did not consistently or significantly alter
heart rate responses to head-up tilt [1, 3]: did not consistently or significantly alter
resting blood pressure ([1]; either dose, 14 days): did not significantly alter
tolerability (side effects and blood pressure regulation) ([1]; humans): well tolerated
LPA effect on expression of Osterix [2]: dramatically suppressed
expression of osteogenic genes induced by BMP2 (e.g., osterix) (canonical BMP signaling): reduced
phospho-SMAD1/5/8 signaling (canonical BMP signaling) (canonical BMP signaling): reduced
sGC-dependent signaling (phospho-VASP^239 levels) (sGC): significantly increased
